The values below are quoted from earlier work in patent US4665086A, “Method for minimizing disturbances in circadian rhythms of bodily performance and function” (priority 1983, dated 1987).

For series [1], the system named is laboratory animals. Conditions: chronic administration, cited from earlier work; for effect on rhythm (splitting): monoamine oxidase inhibitors.
Series [2] deals with endogenous melatonin secretion. Conditions: beta blocker; cited from earlier work.
Series [3] relates to melatonin synthesis. The note with it: rats, exogenous administration; cited from earlier work.

Regarding `[2H]O[2H]` [heavy water (D2 O)], in series [1], the “effect on unentrained, free-running period” value (“effect … free-running period” below) is “lengthens the unentrained, free-running period”.
For the molecule `CN(C)CCCN1c2ccccc2CCc2ccccc21` [imipramine], in series [1], the “effect on rhythm (splitting)” value is “split the rhythm” and the “effect … free-running period” value was “lengthens the unentrained, free-running period”.
As for `CC(C)NC[C@H](O)COc1cccc2ccccc12` (racemic) [PROPANOLOL], in series [2], the “effect on endogenous melatonin secretion” value was “can inhibit endogenous melatonin secretion”.
For the molecule `[Li]` [lithium], the “effect … free-running period” value in series [1] is on record as “lengthens the unentrained, free-running period”.
With `C#CCN(C)CCCOc1ccc(Cl)cc1Cl` [clorgyline], in series [1], the “effect on rhythm (splitting)” value was “split the rhythm” and the “effect … free-running period” value was “lengthens the unentrained, free-running period”.
For the molecule `N[C@@H](Cc1ccc(O)c(O)c1)C(=O)O` [L-dopa], the “effect on melatonin synthesis” value in series [3] was “stimulates melatonin synthesis”.
